Experimental findings from ChEMBL document CHEMBL1148467, “Benzoxazinones as PPARgamma agonists. 2. SAR of the amide substituent and in vivo results in a type 2 diabetes model” (J Med Chem, 2004) are described below.

A short description of data set [1]: Half-life in rat at 30 mg/kg dose administered orally. The following applies: in vivo, po.
In data set [2] the target is T1, Peroxisome proliferator-activated receptor gamma (Homo sapiens, UniProt P37231).
T1 sequence (P37231 whole entry): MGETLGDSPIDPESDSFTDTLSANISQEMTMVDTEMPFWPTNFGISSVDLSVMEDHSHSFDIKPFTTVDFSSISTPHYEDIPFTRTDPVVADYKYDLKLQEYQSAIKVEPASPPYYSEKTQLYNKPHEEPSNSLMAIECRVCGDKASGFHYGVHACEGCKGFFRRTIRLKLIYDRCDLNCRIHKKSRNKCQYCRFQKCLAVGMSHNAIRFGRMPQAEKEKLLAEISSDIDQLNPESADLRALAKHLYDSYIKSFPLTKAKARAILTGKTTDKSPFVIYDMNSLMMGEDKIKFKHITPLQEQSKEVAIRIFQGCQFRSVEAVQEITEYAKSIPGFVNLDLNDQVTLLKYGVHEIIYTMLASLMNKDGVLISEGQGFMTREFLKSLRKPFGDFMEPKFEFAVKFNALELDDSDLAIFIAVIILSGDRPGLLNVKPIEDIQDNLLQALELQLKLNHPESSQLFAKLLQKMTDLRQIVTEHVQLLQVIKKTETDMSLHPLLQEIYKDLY
Description: Agonistic activity against PPAR (peroxisome proliferator activated receptor gamma) in Suarus chinesis

A short description of data set [3]: Area under curve was evaluated in rat at 3 mg/kg dose administered intravenously. It is filed as ADME, organism-based. The following applies: in vivo, iv. On the set-up: dose 3 mg/kg, route intravenous.
Data set [4] is described as follows: Oral bioavailability in rat (dose 30 mg/kg). It is filed as ADME, organism-based. The following applies: in vivo.
Data set [5] in a line: In vitro metabolic stability at 5 uM was determined by incubating with human liver microsomes at 37 degree C. It is filed as ADME, Microsome.
The nature of data set [6]: Area under curve was evaluated in rat at 30 mg/kg dose administered orally. To be noted: in vivo, po.

pEC50: −log10 of the molar value.

As a reminder, the half-life is the time needed for the level to fall by half in the phase considered. What is called pEC50 is the EC50 on a negative log10 scale, so that one unit is a factor of ten. Broadly, the AUC is the area under the concentration-time curve, a measure of exposure. In turn, `O=C(O)Cc1ccccc1OCCC1Oc2ccccc2N(CCCCCCF)C1=O` (centres undefined) showed a half-life in data set [1] of 960 min. The compound further showed a pEC50 in data set [2] of 6.93. The AUC in data set [3] came to 84 µM·h. Besides, the bioavailability in data set [4] is 100%. The compound further came in with a half-life at 5 µM in data set [5] of 76 min. Turning to `CN1C(=O)C(CCOc2ccccc2CC(=O)O)Oc2ccccc21` (centres undefined), in data set [2], the pEC50 was below 5.30. The same measure, in the same setting: the result for `CNC(=O)CCCN1C(=O)C(CCOc2ccccc2CC(=O)O)Oc2ccccc21` (centres undefined) reads below 5.30. In turn, `COCCCCN1C(=O)[C@@H](CCOc2ccccc2CC(=O)O)Oc2ccccc21` gave a half-life in data set [1] of 402 min. Also, in data set [2], the pEC50 was 6.56. In data set [3], this compound displayed an AUC of 88 µM·h. Further, in data set [4], the bioavailability worked out at 41%. The same compound registered a half-life at 5 µM in data set [5] above 500 min. For `CC(C)N1C(=O)C(CCOc2ccccc2CC(=O)O)Oc2ccccc21` (centres undefined), the negative-log EC50 (pEC50) in data set [2] was below 5.30.

In turn, `CC(O)CCCCN1C(=O)C(CCOc2ccccc2CC(=O)O)Oc2ccccc21` (centres undefined) had a pEC50 in data set [2] of 6.00.

In turn, `CCCCCCN1C(=O)[C@H](CCOc2ccccc2CC(=O)O)Oc2ccccc21` gave a pEC50 in data set [2] of 5.92.

`CCCN1C(=O)C(CCOc2ccccc2CC(=O)O)Oc2ccccc21` (centres undefined) gave a pEC50 in data set [2] of around 5.30. As for `CC(C)CN1C(=O)C(CCOc2ccccc2CC(=O)O)Oc2ccccc21` (centres undefined), the pEC50 in data set [2] is around 5.30.

`O=C(O)Cc1ccccc1OCCC1Oc2ccccc2N(CCCCCCCO)C1=O` (centres undefined): the half-life in data set [1] was 420 min. In addition, in data set [2], the pEC50 was 6.83. In data set [3], this compound came in with an AUC of 2.3 µM·h. Besides, in data set [4], the bioavailability is 13%. The compound further returned a half-life at 5 µM in data set [5] of 76 min. `CC(C)(O)CCCCN1C(=O)C(CCOc2ccccc2CC(=O)O)Oc2ccccc21` (centres undefined) had a pEC50 in data set [2] of 6.19. Same read-out and setting: the result for `CC(F)(F)CCCCN1C(=O)[C@H](CCOc2ccccc2CC(=O)O)Oc2ccccc21` reads 6.00; that for `CCCNC(=O)CN1C(=O)C(CCOc2ccccc2CC(=O)O)Oc2ccccc21` (centres undefined), below 5.30; that for `CC(F)(F)CCCCCN1C(=O)C(CCOc2ccccc2CC(=O)O)Oc2ccccc21` (centres undefined), 6.27. Still for that read-out and setting: the result for `CCCCN1C(=O)C(CCOc2ccccc2CC(=O)O)Oc2ccccc21` (centres undefined) reads around 5.30; that for `CCCCCCCN1C(=O)C(CCOc2ccccc2CC(=O)O)Oc2ccccc21` (centres undefined), 6.63.

For the compound `CCCCCCN1C(=O)C(CCOc2ccccc2CC(=O)O)Oc2ccccc21` (centres undefined), the half-life in data set [1] was 840 min. The pEC50 in data set [2] was 7.00. This compound had an AUC in data set [6] of 406 µM·h. For the same compound, the bioavailability in data set [4] was determined as 115%. Also, in data set [5], the half-life at 5 µM came out at 53 min.

For `O=C(O)Cc1ccccc1OCCC1Oc2ccccc2N(CC(=O)O)C1=O` (centres undefined), the pEC50 in data set [2] is below 5.30.

In turn, `CCCCCCN1C(=O)[C@@H](CCOc2ccccc2CC(=O)O)Oc2ccccc21` showed a half-life in data set [1] of 870 min. Besides, the pEC50 in data set [2] was 7.00. The AUC in data set [3] turned out to be 327 µM·h. In addition, the bioavailability in data set [4] amounted to 95%. Further, in data set [5], the half-life at 5 µM amounted to 73 min. In data set [2], `CC(C)(CCCCN1C(=O)C(CCOc2ccccc2CC(=O)O)Oc2ccccc21)C(=O)O` (centres undefined) had a pEC50 of 6.00. `CCOCCCN1C(=O)C(CCOc2ccccc2CC(=O)O)Oc2ccccc21` (centres undefined) gave a pEC50 in data set [2] of around 5.30. In data set [1], `C/C(CCCCN1C(=O)C(CCOc2ccccc2CC(=O)O)Oc2ccccc21)=N\O` (centres undefined) had a half-life of 252 min. The pEC50 in data set [2] is 8.00. In data set [3], this compound had an AUC of 19.9 µM·h. For the same compound, the bioavailability in data set [4] amounted to 16%. The half-life at 5 µM in data set [5] worked out at 148 min.

Take `C=CCCCCN1C(=O)C(CCOc2ccccc2CC(=O)O)Oc2ccccc21` (centres undefined): the pEC50 in data set [2] is 6.68.

In the case of `CCCCCN1C(=O)C(CCOc2ccccc2CC(=O)O)Oc2ccccc21` (centres undefined), in data set [2], the pEC50 is 6.61. The pEC50 values of the last two compounds are within 0.2 log units of each other. Same read-out and setting: the result for `O=C(O)CCCCN1C(=O)C(CCOc2ccccc2CC(=O)O)Oc2ccccc21` (centres undefined) reads below 5.30; that for `CC(=O)CCCCCN1C(=O)C(CCOc2ccccc2CC(=O)O)Oc2ccccc21` (centres undefined), 6.58. Still for that read-out and setting: the result for `NC(=O)CCCCN1C(=O)C(CCOc2ccccc2CC(=O)O)Oc2ccccc21` (centres undefined) reads below 5.30. For `O=C(O)CCCCCN1C(=O)C(CCOc2ccccc2CC(=O)O)Oc2ccccc21` (centres undefined), the pEC50 in data set [2] is below 5.30. In turn, `CCCCCCCCN1C(=O)C(CCOc2ccccc2CC(=O)O)Oc2ccccc21` (centres undefined) gave a pEC50 in data set [2] of 6.52. The same measure, in the same setting: the result for `CC(F)(F)CCCCN1C(=O)C(CCOc2ccccc2CC(=O)O)Oc2ccccc21` (centres undefined) reads 6.75; that for `O=C(O)Cc1ccccc1OCCC1Oc2ccccc2N(CCC2CCCCC2)C1=O` (centres undefined), 6.52; that for `NC(=O)CCCCCN1C(=O)C(CCOc2ccccc2CC(=O)O)Oc2ccccc21` (centres undefined), around 5.30. `O=C(O)Cc1ccccc1OCC[C@H]1Oc2ccccc2N(CCCCCCF)C1=O` had a half-life in data set [1] of 474 min. In data set [2], the pEC50 was 6.82. The compound further gave an AUC in data set [3] of 93 µM·h. In addition, the bioavailability in data set [4] turned out to be 39%. In data set [5], the half-life at 5 µM turned out to be 111 min. For `CS(=O)(=O)NCCCCCCN1C(=O)C(CCOc2ccccc2CC(=O)O)Oc2ccccc21` (centres undefined), in data set [2], the pEC50 was below 5.30. On the same count and under the same terms, the result for `O=C(O)Cc1ccccc1OCCC1Oc2ccccc2N(CCCCCO)C1=O` (centres undefined) reads 6.00.

Compound `O=C(O)Cc1ccccc1OCCC1Oc2ccccc2N(CCCC2CCCC2)C1=O` (centres undefined) showed a pEC50 in data set [2] of 5.57. For `CC(=O)CCCCN1C(=O)C(CCOc2ccccc2CC(=O)O)Oc2ccccc21` (centres undefined), the half-life in data set [1] is 588 min. This compound also had a pEC50 in data set [2] of 6.59. The same compound came in with an AUC in data set [3] of 5.8 µM·h. In addition, the bioavailability in data set [4] was found to be 27%. Moreover, the half-life at 5 µM in data set [5] turned out to be 51 min. As to `O=C(O)Cc1ccccc1OCC[C@@H]1Oc2ccccc2N(CCCCCCF)C1=O`, the pEC50 in data set [2] is 6.24.

As for `CC(C)(C#N)CCCCN1C(=O)C(CCOc2ccccc2CC(=O)O)Oc2ccccc21` (centres undefined), the pEC50 in data set [2] was 6.44. This pEC50 is 0.20 log units higher than that of the compound before. Same read-out and setting: the result for `CC(C)(C)CCCCN1C(=O)C(CCOc2ccccc2CC(=O)O)Oc2ccccc21` (centres undefined) reads 6.00; that for `O=C(O)Cc1ccccc1OCCC1Oc2ccccc2N(CCC2CCCC2)C1=O` (centres undefined), around 5.30. On the same count and under the same terms, the result for `CCCSCCN1C(=O)C(CCOc2ccccc2CC(=O)O)Oc2ccccc21` (centres undefined) reads 6.42; that for `O=C(O)Cc1ccccc1OCCC1Oc2ccccc2N(CCO)C1=O` (centres undefined), below 5.30; that for `CC(=O)NCCCCCCN1C(=O)C(CCOc2ccccc2CC(=O)O)Oc2ccccc21` (centres undefined), below 5.30. Same read-out and setting: the result for `CO/N=C(\C)CCCCN1C(=O)C(CCOc2ccccc2CC(=O)O)Oc2ccccc21` (centres undefined) reads around 5.30; that for `CCCCCCCCCCN1C(=O)C(CCOc2ccccc2CC(=O)O)Oc2ccccc21` (centres undefined), 6.00. Turning to `CC(F)(F)CCCCN1C(=O)[C@@H](CCOc2ccccc2CC(=O)O)Oc2ccccc21`, the pEC50 in data set [2] was 6.53. With `COCCCCN1C(=O)C(CCOc2ccccc2CC(=O)O)Oc2ccccc21` (centres undefined), the pEC50 in data set [2] is 6.56. The compound `CC(C)CCCCN1C(=O)C(CCOc2ccccc2CC(=O)O)Oc2ccccc21` (centres undefined) had a pEC50 in data set [2] of 7.10. Compared with the last compound, the pEC50 is 0.54 log units higher. Same read-out and setting: the result for `O=C(O)Cc1ccccc1OCCC1Oc2ccccc2N(CCCCCCCF)C1=O` (centres undefined) reads 6.14. On the same count and under the same terms, the result for `CCN1C(=O)C(CCOc2ccccc2CC(=O)O)Oc2ccccc21` (centres undefined) reads below 5.30.

`CCCCCCCCCN1C(=O)C(CCOc2ccccc2CC(=O)O)Oc2ccccc21` (centres undefined) showed a pEC50 in data set [2] of around 5.30.

Compound `O=C(O)Cc1ccccc1OCCC1Oc2ccccc2N(CCCCCCO)C1=O` (centres undefined) gave a half-life in data set [1] of 36 min. In data set [2], this compound gave a pEC50 of 6.70. In addition, the AUC in data set [3] came to 2.5 µM·h. The bioavailability in data set [4] was 4%. For the same compound, the half-life at 5 µM in data set [5] came out at 57 min.
